In brackets after ≈: the same amount, converted by molar mass. Like-named read-outs stand apart in the source and are kept apart here. Numbered stars: 1 amine (or outer) side, 2 acyl side, 3 side chain; on linkers, the order of the positions; unused ones are H or OH. Bridge positions count the residues as written; N and C are the ends. Side chains are listed from the residue outwards. Peptide text beside a SMILES is read from it. * marks the point of attachment. C20 diacid = O=C(O)CCCCCCCCCCCCCCCCCCC(=O)*; γGlu = O=C(O)[C@H](CCC(=O)[*:2])N[*:1]
Columns and labels:
[1] = molecular target: T1, rat calcitonin receptor (Rattus norvegicus, UniProt P32214); assay: ASSAY (VIII) binding to the rat calcitonin receptor; settings: Table 7, read-out: rCTR bind IC50
T1 construct: expressed in transfected cells; host or cells: BHK tk'ts 13 (transient, FuGENE 6), membranes
T1 sequence (P32214 25-479 isoform P32214-2 limits assumed): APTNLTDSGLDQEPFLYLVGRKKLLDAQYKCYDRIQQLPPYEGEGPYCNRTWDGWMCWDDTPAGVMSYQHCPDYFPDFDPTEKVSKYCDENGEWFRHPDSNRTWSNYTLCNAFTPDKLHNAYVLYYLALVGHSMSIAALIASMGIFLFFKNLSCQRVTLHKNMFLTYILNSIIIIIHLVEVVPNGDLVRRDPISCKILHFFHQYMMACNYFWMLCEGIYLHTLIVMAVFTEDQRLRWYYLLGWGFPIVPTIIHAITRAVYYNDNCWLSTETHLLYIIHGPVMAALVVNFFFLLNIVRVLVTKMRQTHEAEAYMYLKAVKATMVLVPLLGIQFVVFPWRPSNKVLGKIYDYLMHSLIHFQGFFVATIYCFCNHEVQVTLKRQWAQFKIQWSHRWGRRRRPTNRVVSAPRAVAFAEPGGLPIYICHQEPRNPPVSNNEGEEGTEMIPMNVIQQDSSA
Experimental: Assay (VIII)—Determination of Binding to the Rat Calcitonin Receptor
(§1) The BHK tk′ts 13 cells were transiently transfected with rat calcitonin receptor using FuGENE® 6 (Roche), according to the manufacturer's recommendations. Cells were grown in DMEM with 10% FBS and 1% Pen/Strep. Approximately 48 hours after transfection, the cells were harvested and membranes were prepared.

[2] = molecular target: T2, rat amylin receptor (rat calcitonin receptor + rat RAMP 3) (Rattus norvegicus, UniProt P32214+Q9JJ73); assay: ASSAY (VI) binding to the rat amylin receptor; settings: for IC50: binding to rat amylin receptor, read-out: rAmylin-R bind IC50
T2 construct: expressed in transfected cells; host or cells: BHK tk'ts 13 (transient, FuGENE 6), membranes
T2 sequence (P32214 25-479 isoform P32214-2 limits assumed): T1 sequence (P32214 25-479 isoform P32214-2 limits assumed)
T2 sequence (Q9JJ73 23-147 partner): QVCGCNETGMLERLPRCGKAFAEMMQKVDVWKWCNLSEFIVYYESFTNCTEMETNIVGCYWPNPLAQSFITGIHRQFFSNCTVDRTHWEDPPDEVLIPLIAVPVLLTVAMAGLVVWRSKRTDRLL
Experimental: as §1, with “Assay (VI)—Determination of the Binding to the Rat Amylin Receptor […] The” for “The”, “Cells were grown in DMEM with 10% FBS and 1% Pen/Strep.” left out

[3] = ASSAY (IV) determination of solubility; type: physicochemical
Experimental: Assay (IV)—Determination of Solubility
The polypeptide was dissolved in water at −500 nmol/ml and mixed 1:1 with a series of buffers (100 mM glycylglycine pH 3.0, 100 mM glycylglycine pH 4.0, 100 mM glycylglycine pH 5.0, 100 mM bistrispropane pH 6.0, 100 mM bistrispropane pH 6.5, 100 mM bistrispropane pH 7.0, 100 mM bistrispropane pH 7.5, 100 mM bistrispropane pH 8.0). After 18 hours at room temperature the samples were centrifuged and the polypeptide concentration determined by UPLC.

[4] = molecular target: T3, human amylin receptor (membranes from Amylin 3(a)/CRE-luc cells) (Homo sapiens, UniProt O60896+P30988); assay: ASSAY (V) binding to the human amylin receptor (SPA, 125I-rat amylin);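 further: competition binding of cell membranes (35 ng/µL) mixed with SPA beads in 384-well plates at 40 µL total volume, read by scintillation counting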
T3 construct: expressed in transfected cells
T3 sequence (P30988 25-474): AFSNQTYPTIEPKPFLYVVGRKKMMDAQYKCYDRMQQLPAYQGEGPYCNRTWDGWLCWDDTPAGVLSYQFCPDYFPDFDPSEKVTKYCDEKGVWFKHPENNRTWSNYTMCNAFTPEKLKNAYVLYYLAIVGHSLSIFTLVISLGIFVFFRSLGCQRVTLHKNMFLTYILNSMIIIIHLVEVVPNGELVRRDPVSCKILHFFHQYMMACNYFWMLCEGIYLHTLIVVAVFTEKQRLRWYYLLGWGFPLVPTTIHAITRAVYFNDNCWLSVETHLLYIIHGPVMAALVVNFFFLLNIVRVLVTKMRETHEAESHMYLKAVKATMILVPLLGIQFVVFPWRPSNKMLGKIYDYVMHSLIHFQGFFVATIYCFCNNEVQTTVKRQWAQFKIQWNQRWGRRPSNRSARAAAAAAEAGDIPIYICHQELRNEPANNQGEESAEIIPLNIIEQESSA
T3 sequence (O60896 24-148 partner): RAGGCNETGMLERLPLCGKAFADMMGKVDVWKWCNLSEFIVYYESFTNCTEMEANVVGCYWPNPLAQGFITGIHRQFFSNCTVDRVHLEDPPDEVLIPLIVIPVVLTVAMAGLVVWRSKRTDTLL

[5] = molecular target: T4, human calcitonin (a) receptor in BHK570 cells (Homo sapiens, UniProt P30988); assay: ASSAY (II)a functional assay, human calcitonin receptor (CRE luciferase); type: cell-based; settings: read-out: hCTR funct. EC50
T4 construct: expressed in transfected cells
T4 sequence (P30988 25-474): T3 sequence (P30988 25-474)
Excerpt: 1. Luciferase Assay Outline
Activation of calcitonin and amylin (coexpression of calcitonin receptor and receptor activity modifying proteins (RAMP)) receptors lead to increased intracellular concentrations of cAMP. Consequently, transcription is activated by promoters containing multiple copies of the cAMP response element (CRE). It is thus possible to measure amylin activity by the use of a CRE luciferase reporter gene introduced into BHK cells also expressing calcitonin or amylin receptors.
2. Construction of Calcitonin (a)- and Amylin 3(a)-Receptor/CRE-Luc Cell Line.
The cell line was further transfected with RAMP-3, using standard methods. This turns the calcitonin receptor into an amylin 3(a) receptor. Methotrexate, Neomycin, and Hygromycin are selection markers for luciferase, the calcitonin receptor, and RAMP-3, respectively.
To perform activity assays, BHK calcitonin (a) receptor- or amylin 3(a)-receptor/CRE-luc cells were seeded in white 96 well culture plates at a density of about 20.000 cells/well. […] After incubation overnight at 37° C. and 5% CO2, the growth medium was replaced by 50 μl/well assay medium (DMEM (without phenol red), Glutamax™, 10% FBS, and 10 mM Hepes, pH 7.4). Further, 50 μl/well of standard or sample in assay buffer were added. After 3 hours incubation at 37° C. and 5% CO2, the assay medium with standard or sample were removed and replaced by 100 μl/well PBS. Further, 100 μl/well LucLite™ was added. The plates were sealed and incubated at room temperature for 30 minutes. Finally, luminescence was measured on a TopCounter (Packard) in SPC (single photon counting) mode.

[6] = molecular target: T5, human amylin 3(a) receptor (human calcitonin receptor + RAMP-3) in BHK570 cells (Homo sapiens, UniProt O60896+P30988); assay: ASSAY (II)a functional assay, human amylin receptor (CRE luciferase); type: cell-based; settings: for EC50: human amylin receptor functional potency, assay (II), read-out: hAmylin-R funct. EC50
T5 construct: expressed in transfected cells
In short: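 Readout is luminescence from a cAMP-responsive CRE-luc reporter, developed with LucLite for 30 min at room temperature. Cells were treated for 3 h at 37 °C in 10% FBS/DMEM buffered with 10 mM Hepes (pH 7.4).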

[7] = molecular target: T6, human calcitonin receptor (Homo sapiens, UniProt P30988); assay: ASSAY (VII) binding to the human calcitonin receptor (SPA, 125I-Calcitonin); settings: read-out: hCTR bind IC50;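 further: cell membranes (35 ng/µL) combined with SPA beads in 40 µL of pH 7.4 Hepes buffer, 384-well format, signal counted on a TopCounter instrument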
T6 construct: expressed in transfected cells
T6 sequence (P30988 25-474): T3 sequence (P30988 25-474)

[8] = Table 7, rat binding selectivity, rCTR IC50 / rAmylin-R IC50
[9] = Table 5, selectivity, hCTR bind IC50 / hAmylin-R bind IC50
[10] = Table 7, human binding selectivity, included for comparison
[11] = human functional selectivity: hCTR funct. EC50 / hAmylin-R funct. EC50

In the case of `CC(C)C[C@H](NC(=O)[C@H](CCCNC(=N)N)NC(=O)[C@H](CCC(N)=O)NC(=O)[C@@H](NC(=O)[C@H](C)NC(=O)[C@@H]1CSSC[C@H](NC(=O)[C@@H](N)CCCCNC(=O)CC[C@H](NC(=O)CC[C@H](NC(=O)CCCCCCCCCCCCCCCCCCC(=O)O)C(=O)O)C(=O)O)C(=O)N[C@@H](CC(N)=O)C(=O)N[C@@H]([C@@H](C)O)C(=O)N[C@@H](C)C(=O)N[C@@H]([C@@H](C)O)C(=O)N1)[C@@H](C)O)C(=O)N[C@@H](C)C(=O)N[C@@H](CC(=O)O)C(=O)N[C@@H](Cc1ccccc1)C(=O)N[C@@H](CC(C)C)C(=O)N[C@@H](CCCNC(=N)N)C(=O)N[C@@H](Cc1c[nH]cn1)C(=O)N[C@@H](CO)C(=O)N[C@@H](CO)C(=O)N[C@@H](CC(N)=O)C(=O)N1CCC[C@H]1C(=O)N[C@@H](Cc1ccccc1)C(=O)NCC(=O)N[C@@H](C)C(=O)N1CCC[C@H]1C(=O)N[C@@H](CC(C)C)C(=O)N[C@@H](CO)C(=O)N[C@@H](CO)C(=O)N[C@H](C(=O)N[C@@H](CC(N)=O)C(=O)N[C@H](C(=O)NCC(=O)N[C@@H](CO)C(=O)N[C@@H](CC(=O)O)C(=O)N[C@H](C(=O)N[C@@H](Cc1ccc(O)cc1)C(N)=O)[C@@H](C)O)C(C)C)[C@@H](C)O` [Example 3] (H-K([γGlu-γGlu-C20 diacid])CNTATCATQRLADFLRHSSNPFGAPLSSTNVGSDTY-NH2; disulfide 2-7; N-terminus assumed), the IC50 [1] is reported as 16.7 nM, the IC50 ([2]; Table 7) is reported as 1 nM and the “Ratio rCT/rAmylin binding” value [2, 8] is reported as 16.7. For the same molecule, the “Ratio rCT/rAmylin binding” value ([2]; Table 7a (preferred compounds), rat binding selectivity, rCTR IC50 / rAmylin-R IC50) was 16.7, the “Ratio rCT/rAmylin binding” value ([2]; ratio of rCTR bind IC50 to rAmylin-R bind IC50) was 16.7 and the solubility at 18 h ([3]; bistrispropane buffer, pH 6.5, read-out: Solubility pH 6.5 Concentration) was no less than 200 µM. The solubility at 18 h ([3]; bistrispropane buffer, pH 7.5, read-out: Solubility pH 7.5 Concentration) was no less than 200 µM, the solubility at 18 h ([3]; bistrispropane buffer, pH 6.0, read-out: Solubility pH 6.0 Concentration) was 189 µM (≈ 853 µg/mL) and the solubility at 18 h ([3]; bistrispropane buffer, pH 7.0, read-out: Solubility pH 7.0 Concentration) was 195 µM (≈ 880 µg/mL). For the same molecule, the solubility at 18 h ([3]; bistrispropane buffer, pH 8.0, read-out: Solubility pH 8.0 Concentration) was no less than 200 µM, the solubility at 18 h ([3]; glycylglycine buffer, pH 3.0, read-out: Solubility pH 3.0 Concentration) was no less than 200 µM and the solubility at 18 h ([3]; glycylglycine buffer, pH 4.0, read-out: Solubility pH 4.0 Concentration) was 96 µM (≈ 433 µg/mL). For the same molecule, the solubility at 18 h ([3]; glycylglycine buffer, pH 5.0, read-out: Solubility pH 5.0 Concentration) was 141 µM (≈ 636 µg/mL), the “Ratio hCT/hAmylin binding” value [4, 9] was 17.3 and the “Ratio hCT/hAmylin binding” value ([4]; Table 5a, selectivity, hCTR bind IC50 / hAmylin-R bind IC50) was 17.3. For the same molecule, the “Ratio hCT/hAmylin binding” value ([4]; Table 5b, selectivity, hCTR bind IC50 / hAmylin-R bind IC50) was 17.3, the “Ratio hCT/hAmylin binding” value [4, 10] was 17.3 and the “Ratio hCT/hAmylin binding” value ([4]; Table 7a (preferred compounds), human binding selectivity, included for comparison) was 17.3. For the same molecule, the “Ratio hCT/hAmylin binding” value ([4]; ratio of human calcitonin receptor binding IC50 to human amylin receptor binding IC50) was 17.3, the EC50 [5] was 1.38 nM and the EC50 [6] was 0.205 nM. The “Ratio hCT/hAmylin funct.” value [6, 11] was 6.7.
For `CC[C@H](C)[C@H](NC(=O)[C@@H]1CCCN1C(=O)CNC(=O)[C@H](Cc1ccccc1)NC(=O)[C@H](CC(N)=O)NC(=O)[C@@H]1CCCN1C(=O)[C@H](CO)NC(=O)[C@H](CO)NC(=O)[C@H](Cc1c[nH]cn1)NC(=O)[C@H](CCCNC(=N)N)NC(=O)[C@H](CC(C)C)NC(=O)[C@H](Cc1ccccc1)NC(=O)[C@H](CCC(=O)O)NC(=O)[C@H](C)NC(=O)[C@H](CC(C)C)NC(=O)[C@H](CCCNC(=N)N)NC(=O)[C@H](CCC(N)=O)NC(=O)[C@@H](NC(=O)[C@H](C)NC(=O)[C@@H]1CSSC[C@H](NC(=O)[C@H](CCCCN)NC(=O)CC[C@H](NC(=O)CCCCCCCCCCCCCCCCCCC(=O)O)C(=O)O)C(=O)N[C@@H](CC(N)=O)C(=O)N[C@@H]([C@@H](C)O)C(=O)N[C@@H](C)C(=O)N[C@@H]([C@@H](C)O)C(=O)N1)[C@@H](C)O)C(=O)N[C@@H](CC(C)C)C(=O)N1CCC[C@H]1C(=O)N1CCC[C@H]1C(=O)N[C@H](C(=O)N[C@@H](CC(N)=O)C(=O)N[C@H](C(=O)NCC(=O)N[C@@H](CO)C(=O)N[C@@H](CC(N)=O)C(=O)N[C@H](C(=O)N1CCC[C@H]1C(N)=O)[C@@H](C)O)C(C)C)[C@@H](C)O` [Example 4] ({C20 diacid-γGlu}-KCNTATCATQRLAEFLRHSSPNFGPILPPTNVGSNTP-NH2; disulfide 2-7), the IC50 ([2]; Table 7) was 1.3 nM, the “Ratio rCT/rAmylin binding” value [2, 8] was 3.1 and the IC50 ([4]; Table 4, read-out: hAmylin-R bind IC50) was 0.321 nM. The “Ratio hCT/hAmylin binding” value [4, 9] was 2.1, the “Ratio hCT/hAmylin binding” value [4, 10] was 2.1 and the EC50 [5] was 0.07 nM. For the same molecule, the IC50 [7] was 0.688 nM, the “Ratio hCT/hAmylin funct.” value ([6]; hCTR funct. EC50 / hAmylin-R funct. EC50) was 1.2 and the “Ratio hCT/hAmylin funct.” value ([6]; hCTR funct. EC50 over hAmylin-R funct. EC50) was 1.2. For the same molecule, the EC50 [6] was 0.06 nM and the “Ratio hCT/hAmylin funct.” value [6, 11] was 1.2.
